pIC50: −log10 of the molar value.
How the values were obtained:
[1] = target: Human DPP-IV (Homo sapiens, UniProt P27487); test: in vitro enzymatic activity of inhibitors against DPP-IV; type: biochemical; conditions: AP-AFC substrate
Procedure: Solutions of test compounds in varying concentrations ([…]) were prepared in dimethyl sulfoxide (DMSO) and then diluted into assay buffer comprising: 20 mM Tris, pH 7.4; 20 mM KCl; and 0.1 mg/mL BSA. Human DPP-IV (0.1 nM final concentration) was added to the dilutions and pre-incubated for 10 minutes at ambient temperature before the reaction was initiated with A-P-7-amido-4-trifluoromethylcoumarin (AP-AFC; 10 μM final concentration). The total volume of the reaction mixture was 10-100 μL depending on assay formats used (384 or 96 well plates). The reaction was followed kinetically (excitation λ=400 nm; emission λ=505 nm) for 5-10 minutes or an end-point was measured after 10 minutes. Inhibition constants (IC50) were calculated from the enzyme progress curves using standard mathematical models.

[2] = target: T1, Recombinant human renin (Homo sapiens, UniProt P00797); test: in vitro enzymatic activity of renin inhibitors (fluorescence); type: biochemical; conditions: fluorogenic peptide substrate
T1 construct: with trypsin, and isolate the active form (residues 67-406); made in house; host or cells: FreeStyle 293-F cells (transient expression of pcDNA3.1(+)/hREN)
T1 sequence (P00797 67-406): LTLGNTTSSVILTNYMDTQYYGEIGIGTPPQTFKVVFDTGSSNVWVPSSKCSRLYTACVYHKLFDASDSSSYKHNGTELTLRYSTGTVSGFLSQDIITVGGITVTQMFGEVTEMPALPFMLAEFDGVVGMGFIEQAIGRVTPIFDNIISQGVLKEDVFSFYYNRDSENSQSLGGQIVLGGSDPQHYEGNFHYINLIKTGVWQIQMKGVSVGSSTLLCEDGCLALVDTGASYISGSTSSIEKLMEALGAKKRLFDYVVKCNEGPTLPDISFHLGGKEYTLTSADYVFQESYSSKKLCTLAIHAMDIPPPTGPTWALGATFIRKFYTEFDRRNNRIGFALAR
Excerpt: Test compounds in varying concentrations may be reacted with recombinant human renin in the presence of substrate, e.g., QXL520-γ-Abu-Ile-His-Pro-Phe-His-Leu-Val-Ile-His-Thr-Lys (HiLyteFluo488)-Arg-OH (Anaspec, San Jose, Calif.). The reaction can be followed kinetically using fluorescence (excitation λ=485 nm; emission λ=538 nm). Inhibition constants (IC50) may be calculated by non-linear curve fitting of the compound concentrations and fluorescence intensities to the standard IC50 equation.
Solutions of test compounds in varying concentrations (≦2 mM final concentration) are prepared in dimethyl sulfoxide (DMSO) and then diluted into assay buffer comprising 50 mM Hepes, 1 mM EDTA, 1 mM DTT, 0.1 mg/ml BSA, 0.01% Brij35, pH 7.4. Alternatively, the assay can be performed with a high BSA concentration, wherein the buffer contains an additional 2% BSA.
Recombinant human renin (3 nM final concentration) is added to the dilutions and pre-incubated with the compounds for 10 minutes at 37° C. As described in Examples A-C above, human renin can be obtained by expressing preprorenin (residue 1-406) in mammalian cells, treating the prorenin (residues 24-406) contained in the culture supernatant with trypsin, and isolate the active form (residues 67-406). After pre-incubation, the reaction is initiated with 1 μM of substrate QXL520-γ-Abu-Ile-His-Pro-Phe-His-Leu-Val-Ile-His-Thr-Lys (HiLyteFluo488)-Arg-OH (Anaspec, San Jose, Calif.). The final DMSO in the assay is 5%. The total volume of the reaction mixture is 20 μL, which can be placed on Greiner 384-well small volume plates.
Renin activity may be determined via fluorescence (excitation λ=485 nm; emission λ=538 nm), e.g., on a Molecular Devices SPECTROmax GEMINI XPS. The fluorescence intensity is determined upon the addition of substrate and determined again after incubation at 37° C. for one hour. The fluorescence intensity of a blank (no inhibition) using vehicle alone is also determined. Renin activity is linearly proportional to the change in fluorescence observed (final—initial).
The percent inhibition of renin at a given compound concentration is defined as: 100%×[1−(Fcompound/Fblank)] where Fcompound is the observed fluorescence at a given concentration of test compound and Fblank is the observed fluorescence in the presence of vehicle alone.
The pIC50 value (negative log of the molar concentration of the compound that produces 50% inhibition) of a test compound is calculated by non-linear least squares curve fitting of the equation: Percent Inhibition=100%/(1+(10−pIC50/10 log [I])) to percent inhibition versus compound concentration. The 50% inhibitory concentration (IC50) of a test compound is calculated by raising 10 to the negative pIC50 (10-pIC50).

Chain of Human DPP-IV (P27487 whole entry): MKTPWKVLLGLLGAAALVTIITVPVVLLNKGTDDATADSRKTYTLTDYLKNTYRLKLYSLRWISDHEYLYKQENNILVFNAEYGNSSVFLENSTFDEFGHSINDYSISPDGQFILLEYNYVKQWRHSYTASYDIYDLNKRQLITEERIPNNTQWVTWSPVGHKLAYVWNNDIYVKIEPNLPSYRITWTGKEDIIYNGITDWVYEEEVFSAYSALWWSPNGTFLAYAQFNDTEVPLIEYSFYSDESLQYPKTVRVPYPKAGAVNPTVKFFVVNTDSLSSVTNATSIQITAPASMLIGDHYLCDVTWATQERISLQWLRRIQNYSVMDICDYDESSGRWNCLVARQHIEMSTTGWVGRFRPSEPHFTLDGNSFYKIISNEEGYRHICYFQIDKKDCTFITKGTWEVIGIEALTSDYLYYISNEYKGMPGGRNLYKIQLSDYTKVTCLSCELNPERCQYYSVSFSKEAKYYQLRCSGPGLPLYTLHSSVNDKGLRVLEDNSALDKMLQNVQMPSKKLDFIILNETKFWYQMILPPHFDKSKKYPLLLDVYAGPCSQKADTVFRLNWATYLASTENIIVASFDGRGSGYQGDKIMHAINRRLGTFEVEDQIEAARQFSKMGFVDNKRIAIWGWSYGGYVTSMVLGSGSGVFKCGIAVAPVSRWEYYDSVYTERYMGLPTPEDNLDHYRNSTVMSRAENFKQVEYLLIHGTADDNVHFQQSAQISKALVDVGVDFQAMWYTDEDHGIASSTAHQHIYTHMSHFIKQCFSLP

Row | Molecule | pIC50 [1] | pIC50 [2]
1 | CCCOc1cc(OCCC)cc(-c2c(CN)c(NCc3ccc4ccccc4c3)nc3c2c(=O)n(C)c(=O)n3C)c1 [Compound 67, 6-(Aminomethyl)-5-(3,5-dipropoxyphenyl)-1,3-dimethyl-7-(naphthalen-2-ylmethylamino)pyrido[2,3-d]pyrimidine-2,4(1H,3H)-dione] | < 4.00 | 4.00 to 5.00
2 | CCOc1ccc(OCC)c(-c2c(CN)c(NCc3ccc4ccccc4c3)nc3c2c(=O)n(C)c(=O)n3C)c1 [Compound 64, 6-(aminomethyl)-5-(2,5-diethoxyphenyl)-1,3-dimethyl-7-(naphthalen-2-ylmethylamino)pyrido[2,3-d]pyrimidine-2,4(1H,3H)-dione] | < 4.00 | 5.00 to 6.00
3 | Cn1c(=O)c2c(-c3ccccc3Oc3ccccc3)c(CN)c(NCc3ccc4ccccc4c3)nc2n(C)c1=O [Compound 63, 6-(Aminomethyl)-1,3-dimethyl-7-(naphthalen-2-ylmethylamino)-5-(2-phenoxyphenyl)pyrido[2,3-d]pyrimidine-2,4(1H,3H)-dione] | 5.00 to 6.00 | 5.00 to 6.00
4 | COc1ccc(F)cc1-c1c(CN)c(NCc2cccc(OCC(C)C)c2)nc2c1c(=O)n(C)c(=O)n2C [Compound 83, 6-(aminomethyl)-5-(5-fluoro-2-methoxyphenyl)-7-(3-isobutoxybenzylamino)-1,3-dimethylpyrido[2,3-d]pyrimidine-2,4(1H,3H)-dione] | > 6.00 | 5.00 to 6.00
5 | COc1cc(OC)cc(-c2c(CN)c(NCc3ccc4ccccc4c3)nc3c2c(=O)n(C)c(=O)n3C)c1 [Compound 57, 6-(aminomethyl)-5-(3,5-dimethoxyphenyl)-1,3-dimethyl-7-(naphthalen-2-ylmethylamino)pyrido[2,3-d]pyrimidine-2,4(1H,3H)-dione] | < 4.00 | 5.00 to 6.00
6 | CCOc1cc(OCC)cc(-c2c(CN)c(NCc3ccc4ccccc4c3)nc3c2c(=O)n(C)c(=O)n3C)c1 [Compound 56, 6-(Aminomethyl)-5-(3,5-diethoxyphenyl)-1,3-dimethyl-7-(naphthalen-2-ylmethylamino)pyrido[2,3-d]pyrimidine-2,4(1H,3H)-dione] | < 4.00 | < 4.00
7 | COc1ccc(-c2c(CN)c(NCc3ccc4ccccc4c3)nc3c2c(=O)n(C)c(=O)n3C)cc1OC [Compound 61, 6-(Aminomethyl)-5-(3,4-dimethoxyphenyl)-1,3-dimethyl-7-(naphthalen-2-ylmethylamino)pyrido[2,3-d]pyrimidine-2,4(1H,3H)-dione] | 4.00 to 5.00 | 5.00 to 6.00
8 | 6-(aminomethyl)-5-(2-bromo-5-fluorophenyl)-7-(4-(ethylamino)phenylthio)-1,3-dimethylpyrido[2,3-d]pyrimidine-2,4(1H,3H)-dione [Compound 69] | > 6.00 | 4.00 to 5.00

The remaining lines, values ahead:

Row | pIC50 [1] | pIC50 [2] | Molecule
9 | 5.00 to 6.00 | < 4.00 | CCCOc1ccc(OCCC)c(CNc2nc3c(c(-c4ccc(Cl)cc4Cl)c2CN)c(=O)n(C)c(=O)n3C)c1 [Compound 84, 6-(aminomethyl)-5-(2,4-dichlorophenyl)-7-(2,5-dipropoxybenzylamino)-1,3-dimethylpyrido[2,3-d]pyrimidine-2,4(1H,3H)-dione]
10 | > 6.00 | 5.00 to 6.00 | COc1ccc(F)cc1-c1c(CN)c(NCc2ccc3ccccc3c2)nc2c1c(=O)n(C)c(=O)n2C [Compound 70, 6-(aminomethyl)-5-(5-fluoro-2-methoxyphenyl)-1,3-dimethyl-7-(naphthalen-2-ylmethylamino)pyrido[2,3-d]pyrimidine-2,4(1H,3H)-dione]
11 | > 6.00 | 5.00 to 6.00 | COc1ccc(F)cc1-c1c(CN)c(NCc2ccc(-n3cccn3)cc2)nc2c1c(=O)n(C)c(=O)n2C [Compound 72, 7-(4-(1H-pyrazol-1-yl)benzylamino)-6-(aminomethyl)-5-(5-fluoro-2-methoxyphenyl)-1,3-dimethylpyrido[2,3-d]pyrimidine-2,4(1H,3H)-dione]
12 | 5.00 to 6.00 | 5.00 to 6.00 | Cn1c(=O)c2c(-c3cccc(F)c3)c(CN)c(NCc3ccc4ccccc4c3)nc2n(C)c1=O [Compound 90, 6-(Aminomethyl)-5-(3-fluorophenyl)-1,3-dimethyl-7-(naphthalen-2-ylmethylamino)pyrido[2,3-d]pyrimidine-2,4(1H,3H)-dione]
13 | < 4.00 | 5.00 to 6.00 | COc1cc(OC)cc(-c2c(CN)c(NCc3cccc(-n4cccc4)c3)nc3c2c(=O)n(C)c(=O)n3C)c1 [Compound 85, 7-(3-(1H-pyrrol-1-yl)benzylamino)-6-(aminomethyl)-5-(3,5-dimethoxyphenyl)-1,3-dimethylpyrido[2,3-d]pyrimidine-2,4(1H,3H)-dione]
14 | < 4.00 | 4.00 to 5.00 | CCNCc1c(NCc2ccc3ccccc3c2)nc2c(c1-c1cc(OC)cc(OC)c1)c(=O)n(C)c(=O)n2C [Compound 86, 5-(3,5-dimethoxyphenyl)-6-((ethylamino)methyl)-1,3-dimethyl-7-(naphthalen-2-ylmethylamino)pyrido[2,3-d]pyrimidine-2,4(1H,3H)-dione]
